# Results taken from ChEMBL document CHEMBL1201862, “PubChem BioAssay data set” (2004).
#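 All cell lines were grown in 96-well plates and treated with compound for 48 hours. At the GI50, growth is halved.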 Active and inactive are the calls of the source. Cut-off read from the data, not from the text of the source: active = GI50 up to about 1.1 µM and inactive = higher. Where a SMILES comes first, the peptide text is derived from it. [ ]: non-standard residue; d: D form. The star is where a group is joined. Hyp = O=C(O)[CH]1C[CH](O)CN1; Cbz = O=C(OCc1ccccc1)*
# Columns and labels:
# Assay in all cases: growth of human tumour cells (NCI), 48 h
# [1] = test system: SNB-19
# [2] = test system: HCC 2998
# [3] = test system: OVCAR-4
# [4] = test system: SNB-75
# [5] = test system: HT-29
# [6] = test system: 786-0
# [7] = test system: U-251
# [8] = test system: SN12C
# [9] = test system: SF-295
# [10] = test system: TK-10
# [11] = test system: PC-3
# [12] = test system: A549
# [13] = test system: MDA-MB-435
# [14] = test system: NCI-H522
# [15] = test system: CCRF-CEM
# [16] = test system: MDA-MB-231
# [17] = test system: NCI-H460
# [18] = test system: NCI-H226
# [19] = test system: OVCAR-8
# [20] = test system: M14
# [21] = test system: ACHN
# [22] = test system: KM12
# [23] = test system: UO-31
# [24] = test system: HL-60
# [25] = test system: RXF 393
# [26] = test system: MOLT-4
# [27] = test system: LOX IMVI
# [28] = test system: Hs-578T
# [29] = test system: SK-OV-3
# [30] = test system: HCT-116
# [31] = test system: SK-MEL-28
# [32] = test system: UACC-62
# [33] = test system: SK-MEL-2
# [34] = test system: SK-MEL-5
# [35] = test system: MCF7
# [36] = test system: NCI-H23
# [37] = test system: Malme-3M
# [38] = test system: EKVX
# [39] = test system: DU-145
# [40] = test system: BT-549
# [41] = test system: UACC-257
# [42] = test system: RPMI-8226
# [43] = test system: A498
# [44] = test system: HOP-62
# [45] = test system: K562
# [46] = test system: HCT-15
# [47] = test system: IGROV-1
# [48] = test system: COLO 205
# [49] = test system: SR
# [50] = test system: SW-620
# [51] = test system: OVCAR-5
# [52] = test system: NCI/ADR-RES
# [53] = test system: OVCAR-3
# [54] = test system: MDA-N
# [55] = test system: SF-268
# [56] = test system: T47D
structure (smiles),measurement,setting,value
NC(=O)CNC(=O)C1CC(O)CN1C(=O)C1CCCN1C(=O)OCc1ccccc1 (stereo not drawn) (Cbz-Pro-[Hyp]-Gly-NH2; configuration not given here),GI50,[1],> 100 µM (inactive)
same,GI50,[2],> 100 µM (inactive)
same,GI50,[3],> 100 µM (inactive)
same,GI50,[4],> 100 µM (inactive)
same,GI50,[5],> 100 µM (inactive)
same,GI50,[6],> 100 µM (inactive)
same,GI50,[7],> 100 µM (inactive)
same,GI50,[8],> 100 µM (inactive)
same,GI50,[9],> 100 µM (inactive)
same,GI50,[10],> 100 µM (inactive)
same,GI50,[11],> 100 µM (inactive)
same,GI50,[12],> 100 µM (inactive)
same,GI50,[13],> 100 µM (inactive)
same,GI50,[14],> 100 µM (inactive)
same,GI50,[15],> 100 µM (inactive)
same,GI50,[16],> 100 µM (inactive)
same,GI50,[17],> 100 µM (inactive)
same,GI50,[18],> 100 µM (inactive)
same,GI50,[19],> 100 µM (inactive)
same,GI50,[20],> 100 µM (inactive)
same,GI50,[21],> 100 µM (inactive)
same,GI50,[22],> 100 µM (inactive)
same,GI50,[23],> 100 µM (inactive)
same,GI50,[24],> 100 µM (inactive)
same,GI50,[25],> 100 µM (inactive)
same,GI50,[26],> 100 µM (inactive)
same,GI50,[27],> 100 µM (inactive)
same,GI50,[28],> 100 µM (inactive)
same,GI50,[29],> 100 µM (inactive)
same,GI50,[30],> 100 µM (inactive)
same,GI50,[31],> 100 µM (inactive)
same,GI50,[32],> 100 µM (inactive)
same,GI50,[33],> 100 µM (inactive)
same,GI50,[34],> 100 µM (inactive)
same,GI50,[35],> 100 µM (inactive)
same,GI50,[36],> 100 µM (inactive)
same,GI50,[37],> 100 µM (inactive)
same,GI50,[38],> 100 µM (inactive)
same,GI50,[39],> 100 µM (inactive)
same,GI50,[40],> 100 µM (inactive)
same,GI50,[41],> 100 µM (inactive)
same,GI50,[42],> 100 µM (inactive)
same,GI50,[43],> 100 µM (inactive)
same,GI50,[44],> 100 µM (inactive)
same,GI50,[45],> 100 µM (inactive)
same,GI50,[46],> 100 µM
same,GI50,[47],> 100 µM (inactive)
same,GI50,[48],> 100 µM (inactive)
same,GI50,[49],> 100 µM (inactive)
same,GI50,[50],> 100 µM (inactive)
same,GI50,[51],> 100 µM (inactive)
same,GI50,[52],> 100 µM (inactive)
same,GI50,[53],> 100 µM (inactive)
same,GI50,[54],> 100 µM (inactive)
same,GI50,[55],> 100 µM (inactive)
same,GI50,[56],> 100 µM (inactive)
